Measurements from US20130012709A1, “NOVEL INHIBITORS OF STEAROYL-CoA-DESATURASE-1 AND THEIR USES” (CENTRE NATIONAL DE LA RECHERCHE SCIENTIFIQUE, priority 2009, published 2013).

Key:
SCD-1 = target: T1, SCD-1 (Homo sapiens, UniProt O00767); experiment: Determination of SCD activity, [14C] palmitic to palmitoleic acid conversion in cells; format: cell-based; details: all three cell lines (LNCaP, C4-2, PNT2), 25 μM
T1 construct: endogenous in cells; host or cells: LNCaP, C4-2, PNT2 cells
T1 sequence (O00767 1-359): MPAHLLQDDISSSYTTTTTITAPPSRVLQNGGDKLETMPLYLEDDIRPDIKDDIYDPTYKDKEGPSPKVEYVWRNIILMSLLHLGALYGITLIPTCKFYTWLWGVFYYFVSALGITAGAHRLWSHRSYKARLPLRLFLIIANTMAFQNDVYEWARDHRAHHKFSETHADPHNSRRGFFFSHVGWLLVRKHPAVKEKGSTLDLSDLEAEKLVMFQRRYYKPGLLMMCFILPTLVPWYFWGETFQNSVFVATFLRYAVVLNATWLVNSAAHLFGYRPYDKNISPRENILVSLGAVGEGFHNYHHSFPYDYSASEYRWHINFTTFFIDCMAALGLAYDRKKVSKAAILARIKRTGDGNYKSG
Experimental: Subconfluent LNCaP, C4-2, PNT2 of Ras SV40 MEFs cells grown in 6-wells plate were incubated with the tested inhibitor at 25 μM for 2 h in serum and fatty acid-free DMEM media supplemented 0.2% BSA. In this environment, the cells are solely dependent on endogenous fatty acid synthesis for production of storage, structural and signaling lipids. Trace amount of [^14C] palmitic acid were then added to the culture (0.5 μCi/well), and cells were incubated for 6 more hours. At the end of the incubation, total cell lipids were extracted and saponified, then released fatty acids were esterified with boron trifluoride in methanol for 90 min at 100° C. […] Air-dried plates were scanned on a Phosphorlmager and fatty acid spots on TLC were analysed with Phosphorlmager software. SCD activity was expressed as the ratio of palmitoleic on palmitic methyl ester acids and normalized to cellular DNA content.
The efficacy of the tested compound to inhibit SCD-1 activity has been evaluated by measuring the conversion of exogenous [^14C] saturated palmitic acid (16:0) to monounsaturated palmitoleic acid (16:1n-7). Moreover, the effects of inhibition of SCD-1 activity on lipid synthesis and proliferation in prostate cancer cell lines were analysed.

transformed MEFs = experiment: Apoptosis, annexinV-FITC flow cytometry; format: cell-based, mouse; details: all transformed cells, 25 μM, 24 h
Experimental: Cells were then rinsed in PBS, pelleted at 400 g for 5 min and maintained on ice for 20 min before resuspension in a […] propidium iodide (Sigma) solution. Cells were kept overnight at 4° C. and the percentages of cells in G1, S and G2-M phases of the cell cycle were measured with a Coulter Epics XL™ flow cytometer (Becton Dickinson) using 488-nm laser excitation. For apoptosis experiment, MEFs were treated with the tested compound at 25 μM for 24 h, then rinced in PBS, pelleted at 400 g for 5 min and stained with annexinV-FITC (Roche Diagnostics, Meylan, France) for 15 min at 4° C. The percentage of annexin positive cells was immediately analysed using 488-nm laser excitation.

SCDs = experiment: Determination of SCD activity in transformed MEFs; format: cell-based, mouse; details: 25 μM
Experimental: Subconfluent LNCaP, C4-2, PNT2 of Ras SV40 MEFs cells grown in 6-wells plate were incubated with the tested inhibitor at 25 μM for 2 h in serum and fatty acid-free DMEM media supplemented 0.2% BSA. In this environment, the cells are solely dependent on endogenous fatty acid synthesis for production of storage, structural and signaling lipids. Trace amount of [^14C] palmitic acid were then added to the culture (0.5 μCi/well), and cells were incubated for 6 more hours. At the end of the incubation, total cell lipids were extracted and saponified, then released fatty acids were esterified with boron trifluoride in methanol for 90 min at 100° C. The derived methyl esters were separated by argentation TLC (Thermo Fisher Scientific) following the procedure of Wilson and Sargen, using a solvent phase consisting of hexane:ethyl ether (90:10, by vol) (35). Pure stearic and oleic methyl ester acids were run in parallel to the samples. Air-dried plates were scanned on a Phosphorlmager and fatty acid spots on TLC were analysed with Phosphorlmager software. SCD activity was expressed as the ratio of palmitoleic on palmitic methyl ester acids and normalized to cellular DNA content.

C4-2 cells [1] = experiment: PI(3,4,5)P3 mass ELISA; format: cell-based, human; details: C4-2, 25 μM, 24 h, vs non-treated cells
Experimental: (§1) The production of PI(3,4,5)P3 (PIP3) in LNCaP and C4-2 prostate cancer cells was measured 24 h following exposure to control medium or to medium supplemented with the inhibitor tested at 25 μM. The levels of produced PIP3 were quantified after cellular lipids extraction using a PI(3,4,5)P3 mass ELISA kit according to the manufacturer's instruction.

LNCaP cells [2] = experiment: PI(3,4,5)P3 mass ELISA; format: cell-based, human; details: 25 μM, 24 h, vs non-treated cells
Experimental: as §1

C4-2 tumors = experiment: Survival analysis of mice with pre-established C4-2 tumors; format: in vivo; details: for animals surviving at 14 days of treatment: control group 37.5%
Experimental: Male athymic nude Mice (Foxn1 nu/nu) (Harlan, Grannat, France) were used at the age of 7 weeks (weight 25-30 g). All procedures were performed in compliance with the European Convention for the Protection of Vertebrate Animals Used for Experimentation (animal house agreement # B-34-172-27, authorization for animal experimentation #34.324). Experiments were done at least twice for each tested condition. Animals were sacrificed before they became compromised. Xenografts were established by subcutaneously injecting 2×10^6 LNCaP cells, 2×10^6 C4-2 cells or 5×10^5 MEFs SV40 in 100 μl of a Matrigel solution. For curative experiments, tumors were allowed to growth until they were measurable with a caliper. In each group, the mice were randomized and given SCD-1 inhibitor at 80 mg/kg in 100 μl of a labrafil-DMA-tween^80 solution (89:10:1) (treated group) or vehicle alone (control group), by daily intra-peritoneal (i.p.) injection 5 days of week. For preventive experiments, the mice were treated daily for 7 days before the day of xenograft. Tumor volume measurements were taken twice to three times a week and calculated according to the formula: length×width×height×0.5236. Data are expressed as the mean tumor volume or as fold of the start point tumor volume. For survival analysis, animals bearing pre-established C4-2 tumors were treated with BZ36 at 80 mg/kg or 160 mg/kg or with vehicle by daily i.p. injection 5 days of week. All mice were monitored for survival until tumor volume had reached 2000 mm^3 or until death. Analysis of survival was conducted by a log-rank test based on the Kaplan-Meier method. At euthanasia, tumors were excised and fixed in 4% formalin for immunohistological analyses.

C4-2 cells [3] = experiment: Proliferation assay (cell counting); format: cell-based, human; details: C4-2, maximal dose used
Experimental: (§2) At 24 h, 48 h, 72 h and 96 h following addition of increasing concentrations of the tested compound in DMSO or DMSO alone, cells were trypsinized, pelleted by centrifugation at 1200 rpm for 5 min, resuspended in 500 μl of culture medium and counted in an hemocytometer.

PNT2 cells = experiment: Proliferation assay (cell counting); format: cell-based, human; details: non-cancerous PNT2, even at a maximal dose
Experimental: as §2

LNCaP cells [4] = experiment: Proliferation assay (cell counting); format: cell-based, human; details: maximal dose used
Experimental: as §2

## COc1ccc(Br)c(C(=O)N2CCN(c3ccc(C(=O)NCCCc4ccccc4)cn3)CC2)c1 [BZ36]
SCD-1
  labelled monounsaturated palmitoleic acid vs control cells: marked reduction
Transformed MEFs
  cell death (annexin V-positive cells): strong induction of cell death
SCDs
  [14C]-palmitoleic to palmitic methyl ester acids ratio: decreased lipogenesis
C4-2 cells [1]
  decrease of PI(3,4,5)P3 concentration: 92%
LNCaP cells [2]
  decrease of PI(3,4,5)P3 concentration: 84%
C4-2 tumors; 80 mg/kg or 160 mg/kg, p=0.038
  animal survival in comparison to vehicle control: significant and dose-dependant prolongation
C4-2 tumors; 80 mg/kg
  animals surviving at 14 days of treatment: 75%
C4-2 tumors; 80 mg/kg, control group 14 days
  median survival: 21 days
C4-2 tumors; 160 mg/kg, control group 12.5%
  animals surviving at 28 days of treatment: 75%
C4-2 tumors; 160 mg/kg
  animals surviving at 14 days of treatment: 100%
C4-2 cells [3]
  inhibition of cell proliferation: 100%
PNT2 cells
  effect in proliferation: no effect
LNCaP cells [4]
  inhibition of cell proliferation: 100%
